Results: paper PMC9506414, “Novel 2,6,9-Trisubstituted Purines as Potent CDK Inhibitors Alleviating Trastuzumab-Resistance of HER2-Positive Breast Cancers” (Pharmaceuticals, 2022)

Legend:
Assay in all cases: Kinome-wide inhibition profiling
Type in all cases: biochemical
AKT3 = biological target: T1, AKT3 (Homo sapiens, UniProt Q9Y243)
T1 construct: purchased Reaction Biology Corp
Procedure: (§1) In vitro CDK12/cyclinK assays for all compounds and in vitro kinome-wide inhibition profiling of 30d at 10 μM were performed by a CRO company (Reaction Biology Corp., San Diego, CA, USA).

AXL = biological target: T2, AXL (Homo sapiens, UniProt P30530)
T2 construct: purchased Reaction Biology Corp
Procedure: as §1

AurkC = biological target: T3, AurkC (Homo sapiens, UniProt Q9UQB9)
T3 construct: purchased Reaction Biology Corp
Procedure: as §1

BMPR2 = biological target: T4, BMPR2 (Homo sapiens, UniProt Q13873)
T4 construct: purchased Reaction Biology Corp
Procedure: as §1

BRAF = biological target: T5, BRAF (Homo sapiens, UniProt P15056)
T5 construct: purchased Reaction Biology Corp
Procedure: as §1

CAMK1b = biological target: T6, CAMK1b (Homo sapiens, UniProt Q6P2M8)
T6 construct: purchased Reaction Biology Corp
Procedure: as §1

CAMK1d = biological target: T7, CAMK1d (Homo sapiens, UniProt Q8IU85)
T7 construct: purchased Reaction Biology Corp
Procedure: as §1

CAMK2d = biological target: T8, CAMK2d (Homo sapiens, UniProt Q13557)
T8 construct: purchased Reaction Biology Corp
Procedure: as §1

CDK1/cyclinB = biological target: T9, CDK1/cyclinB (Homo sapiens, UniProt P06493)
T9 construct: purchased Reaction Biology Corp
T9 sequence (P06493 whole entry): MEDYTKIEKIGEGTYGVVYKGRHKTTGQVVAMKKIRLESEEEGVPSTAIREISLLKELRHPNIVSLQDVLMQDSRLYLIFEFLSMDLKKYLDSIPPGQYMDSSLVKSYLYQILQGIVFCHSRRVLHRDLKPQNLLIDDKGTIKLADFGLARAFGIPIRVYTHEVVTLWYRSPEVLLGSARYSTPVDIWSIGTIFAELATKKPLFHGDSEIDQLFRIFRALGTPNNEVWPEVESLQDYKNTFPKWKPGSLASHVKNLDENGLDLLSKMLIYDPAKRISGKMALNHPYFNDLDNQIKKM
T9 sequence (P14635 whole entry partner): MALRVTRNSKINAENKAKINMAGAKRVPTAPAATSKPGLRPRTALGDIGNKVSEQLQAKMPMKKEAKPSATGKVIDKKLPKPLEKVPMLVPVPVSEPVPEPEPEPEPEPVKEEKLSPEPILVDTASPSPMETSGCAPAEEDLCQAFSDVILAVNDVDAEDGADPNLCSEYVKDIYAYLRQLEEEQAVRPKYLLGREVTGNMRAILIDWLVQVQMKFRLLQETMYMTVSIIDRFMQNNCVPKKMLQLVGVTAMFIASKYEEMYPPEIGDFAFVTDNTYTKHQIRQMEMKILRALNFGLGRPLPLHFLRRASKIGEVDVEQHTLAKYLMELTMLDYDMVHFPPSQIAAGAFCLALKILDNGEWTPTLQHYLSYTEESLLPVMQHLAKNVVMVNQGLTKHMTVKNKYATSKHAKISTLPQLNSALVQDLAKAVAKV
Procedure: as §1

CDK4/cyclinD1 = biological target: T10, CDK4/cyclinD1 (Homo sapiens, UniProt P11802)
T10 construct: purchased Reaction Biology Corp
Procedure: as §1

CDK4/cyclinD3 = biological target: T11, CDK4/cyclinD3 (Homo sapiens, UniProt P11802)
T11 construct: purchased Reaction Biology Corp
Procedure: as §1

CDK7/cyclinH = biological target: T12, CDK7/cyclinH (Homo sapiens, UniProt P50613)
T12 construct: purchased Reaction Biology Corp
T12 sequence (P50613 whole entry): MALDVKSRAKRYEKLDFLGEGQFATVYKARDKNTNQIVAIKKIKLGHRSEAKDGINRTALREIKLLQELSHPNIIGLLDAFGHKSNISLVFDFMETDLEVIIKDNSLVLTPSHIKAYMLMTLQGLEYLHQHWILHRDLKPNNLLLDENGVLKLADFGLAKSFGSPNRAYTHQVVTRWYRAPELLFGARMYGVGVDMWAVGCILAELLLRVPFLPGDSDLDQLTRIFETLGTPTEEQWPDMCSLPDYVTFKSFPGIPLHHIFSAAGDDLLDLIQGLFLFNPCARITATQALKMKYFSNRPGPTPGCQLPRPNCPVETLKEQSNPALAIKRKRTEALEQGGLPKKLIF
T12 sequence (P51946 whole entry partner): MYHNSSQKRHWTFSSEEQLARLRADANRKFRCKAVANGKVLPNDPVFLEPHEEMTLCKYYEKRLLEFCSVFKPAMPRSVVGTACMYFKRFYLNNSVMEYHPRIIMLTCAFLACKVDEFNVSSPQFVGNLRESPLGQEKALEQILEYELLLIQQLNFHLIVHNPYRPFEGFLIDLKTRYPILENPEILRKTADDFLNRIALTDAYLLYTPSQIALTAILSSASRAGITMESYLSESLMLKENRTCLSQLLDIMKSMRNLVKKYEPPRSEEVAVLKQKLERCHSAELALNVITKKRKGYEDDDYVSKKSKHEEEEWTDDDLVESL
T12 sequence (P51948 whole entry partner): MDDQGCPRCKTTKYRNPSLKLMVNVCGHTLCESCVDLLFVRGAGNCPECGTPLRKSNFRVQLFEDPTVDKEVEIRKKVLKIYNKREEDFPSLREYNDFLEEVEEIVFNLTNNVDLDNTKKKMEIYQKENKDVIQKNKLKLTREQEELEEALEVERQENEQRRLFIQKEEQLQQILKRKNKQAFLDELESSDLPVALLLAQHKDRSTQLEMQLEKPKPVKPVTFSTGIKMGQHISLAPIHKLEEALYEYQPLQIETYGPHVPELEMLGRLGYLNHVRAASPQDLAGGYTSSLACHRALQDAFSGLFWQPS
Procedure: as §1

CSNK1G1 = biological target: T13, CSNK1G1 (Homo sapiens, UniProt Q9HCP0)
T13 construct: purchased Reaction Biology Corp
Procedure: as §1

DMPK2 = biological target: T14, DMPK2 (Homo sapiens, UniProt Q6DT37)
T14 construct: purchased Reaction Biology Corp
Procedure: as §1

DYRK1B = biological target: T15, DYRK1B (Homo sapiens, UniProt Q9Y463)
T15 construct: purchased Reaction Biology Corp
T15 sequence (Q9Y463 whole entry): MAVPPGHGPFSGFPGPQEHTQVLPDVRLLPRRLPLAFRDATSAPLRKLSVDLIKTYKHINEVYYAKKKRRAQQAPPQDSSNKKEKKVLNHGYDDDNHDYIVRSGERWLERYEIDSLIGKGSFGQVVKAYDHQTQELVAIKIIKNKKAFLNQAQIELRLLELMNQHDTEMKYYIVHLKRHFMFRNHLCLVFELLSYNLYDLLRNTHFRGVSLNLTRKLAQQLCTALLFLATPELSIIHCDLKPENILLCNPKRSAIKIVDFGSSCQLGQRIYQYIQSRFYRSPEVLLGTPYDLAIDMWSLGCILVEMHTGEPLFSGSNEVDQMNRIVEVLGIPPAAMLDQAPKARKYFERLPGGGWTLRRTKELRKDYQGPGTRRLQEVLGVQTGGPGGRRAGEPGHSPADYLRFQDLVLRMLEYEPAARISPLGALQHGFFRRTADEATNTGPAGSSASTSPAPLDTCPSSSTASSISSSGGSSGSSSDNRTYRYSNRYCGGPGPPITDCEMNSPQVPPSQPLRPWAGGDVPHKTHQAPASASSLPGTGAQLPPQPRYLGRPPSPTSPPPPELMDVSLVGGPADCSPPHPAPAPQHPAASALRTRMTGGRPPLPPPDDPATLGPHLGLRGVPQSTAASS
Procedure: as §1

EPHB2 = biological target: T16, EPHB2 (Homo sapiens, UniProt P29323)
T16 construct: purchased Reaction Biology Corp
T16 sequence (P29323 19-1055): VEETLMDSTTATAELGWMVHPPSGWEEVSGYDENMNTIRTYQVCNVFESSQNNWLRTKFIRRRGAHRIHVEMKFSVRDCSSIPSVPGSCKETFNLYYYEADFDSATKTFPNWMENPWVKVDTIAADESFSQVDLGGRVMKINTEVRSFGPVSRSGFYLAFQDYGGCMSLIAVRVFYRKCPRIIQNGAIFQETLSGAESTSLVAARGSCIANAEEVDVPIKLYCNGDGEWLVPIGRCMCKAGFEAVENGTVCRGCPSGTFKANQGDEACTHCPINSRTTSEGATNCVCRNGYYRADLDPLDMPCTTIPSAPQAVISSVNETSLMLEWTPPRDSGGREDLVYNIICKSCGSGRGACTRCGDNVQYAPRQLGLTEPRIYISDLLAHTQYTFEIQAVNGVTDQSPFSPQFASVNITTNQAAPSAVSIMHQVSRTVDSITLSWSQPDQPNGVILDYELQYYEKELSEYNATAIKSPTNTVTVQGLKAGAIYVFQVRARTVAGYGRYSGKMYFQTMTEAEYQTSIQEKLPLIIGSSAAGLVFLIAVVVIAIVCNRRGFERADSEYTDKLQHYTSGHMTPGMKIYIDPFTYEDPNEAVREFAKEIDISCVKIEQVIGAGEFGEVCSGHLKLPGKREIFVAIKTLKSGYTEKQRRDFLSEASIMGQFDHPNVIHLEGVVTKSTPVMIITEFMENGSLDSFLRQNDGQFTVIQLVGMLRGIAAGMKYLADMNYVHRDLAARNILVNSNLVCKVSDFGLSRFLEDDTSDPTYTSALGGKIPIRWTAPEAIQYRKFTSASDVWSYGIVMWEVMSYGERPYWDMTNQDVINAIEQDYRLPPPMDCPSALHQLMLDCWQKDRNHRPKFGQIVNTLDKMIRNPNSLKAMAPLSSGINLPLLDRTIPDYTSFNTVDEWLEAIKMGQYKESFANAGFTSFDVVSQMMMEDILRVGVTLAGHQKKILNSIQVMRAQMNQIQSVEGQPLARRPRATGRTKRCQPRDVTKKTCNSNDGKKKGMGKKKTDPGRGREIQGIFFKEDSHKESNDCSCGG
Procedure: as §1

ERK1 = biological target: T17, ERK1 (Homo sapiens, UniProt P27361)
T17 construct: purchased Reaction Biology Corp
Procedure: as §1

FGFR2 = biological target: T18, FGFR2 (Homo sapiens, UniProt P21802)
T18 construct: purchased Reaction Biology Corp
Procedure: as §1

HIPK4 = biological target: T19, HIPK4 (Homo sapiens, UniProt Q8NE63)
T19 construct: purchased Reaction Biology Corp
Procedure: as §1

HPK1 = biological target: T20, HPK1 (Homo sapiens, UniProt Q92918)
T20 construct: purchased Reaction Biology Corp
Procedure: as §1

ICK = biological target: T21, ICK (Homo sapiens, UniProt Q9UPZ9)
T21 construct: purchased Reaction Biology Corp
Procedure: as §1

IRAK2 = biological target: T22, IRAK2 (Homo sapiens, UniProt O43187)
T22 construct: purchased Reaction Biology Corp
Procedure: as §1

IRAK4 = biological target: T23, IRAK4 (Homo sapiens, UniProt Q9NWZ3)
T23 construct: purchased Reaction Biology Corp
Procedure: as §1

MAP3K3 = biological target: T24, MAP3K3 (Homo sapiens, UniProt Q99759)
T24 construct: purchased Reaction Biology Corp
Procedure: as §1

MAPKAPK2 = biological target: T25, MAPKAPK2 (Homo sapiens, UniProt P49137)
T25 construct: purchased Reaction Biology Corp
Procedure: as §1

MEK2 = biological target: T26, MEK2 (Homo sapiens, UniProt P36507)
T26 construct: purchased Reaction Biology Corp
Procedure: as §1

MEK5 = biological target: T27, MEK5 (Homo sapiens, UniProt Q13163)
T27 construct: purchased Reaction Biology Corp
T27 sequence (Q13163 whole entry): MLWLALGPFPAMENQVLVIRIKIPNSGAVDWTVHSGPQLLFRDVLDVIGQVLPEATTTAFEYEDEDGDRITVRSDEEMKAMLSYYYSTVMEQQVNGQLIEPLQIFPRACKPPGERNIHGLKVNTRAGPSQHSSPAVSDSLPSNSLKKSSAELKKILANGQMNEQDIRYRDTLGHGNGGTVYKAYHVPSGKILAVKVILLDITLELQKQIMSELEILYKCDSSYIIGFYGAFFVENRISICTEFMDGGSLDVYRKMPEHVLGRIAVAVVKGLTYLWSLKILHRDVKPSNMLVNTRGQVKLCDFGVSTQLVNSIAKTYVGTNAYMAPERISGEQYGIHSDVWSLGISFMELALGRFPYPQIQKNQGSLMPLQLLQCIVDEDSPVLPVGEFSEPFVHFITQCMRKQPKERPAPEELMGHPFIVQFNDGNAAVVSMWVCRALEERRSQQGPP
Procedure: as §1

MET = biological target: T28, MET (Homo sapiens, UniProt P08581)
T28 construct: purchased Reaction Biology Corp
Procedure: as §1

MKK6 = biological target: T29, MKK6 (Homo sapiens, UniProt P52564)
T29 construct: purchased Reaction Biology Corp
Procedure: as §1

MNK2 = biological target: T30, MNK2 (Homo sapiens, UniProt Q9HBH9)
T30 construct: purchased Reaction Biology Corp
Procedure: as §1

MUSK = biological target: T31, MUSK (Homo sapiens, UniProt O15146)
T31 construct: purchased Reaction Biology Corp
Procedure: as §1

P38-gamma = biological target: T32, P38-gamma (Homo sapiens, UniProt P53778)
T32 construct: purchased Reaction Biology Corp
Procedure: as §1

PHKg1 = biological target: T33, PHKg1 (Homo sapiens, UniProt Q16816)
T33 construct: purchased Reaction Biology Corp
T33 sequence (Q16816 whole entry): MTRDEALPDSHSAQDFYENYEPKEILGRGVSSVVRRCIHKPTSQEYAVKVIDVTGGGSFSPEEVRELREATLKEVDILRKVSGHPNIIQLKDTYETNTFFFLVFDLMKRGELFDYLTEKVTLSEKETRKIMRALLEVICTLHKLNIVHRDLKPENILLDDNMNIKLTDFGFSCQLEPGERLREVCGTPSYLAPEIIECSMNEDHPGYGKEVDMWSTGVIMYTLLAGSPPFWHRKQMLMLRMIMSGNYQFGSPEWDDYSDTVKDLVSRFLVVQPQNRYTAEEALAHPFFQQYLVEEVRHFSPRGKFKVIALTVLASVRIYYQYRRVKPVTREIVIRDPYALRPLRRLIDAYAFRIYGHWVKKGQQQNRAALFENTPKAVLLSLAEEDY
Procedure: as §1

PKAC-gamma = biological target: T34, PKAC-gamma (Homo sapiens, UniProt P22612)
T34 construct: purchased Reaction Biology Corp
Procedure: as §1

PKN1 = biological target: T35, PKN1 (Homo sapiens, UniProt Q16512)
T35 construct: purchased Reaction Biology Corp
Procedure: as §1

PLK1 = biological target: T36, PLK1 (Homo sapiens, UniProt P53350)
T36 construct: purchased Reaction Biology Corp
Procedure: as §1

PLK3 = biological target: T37, PLK3 (Homo sapiens, UniProt Q9H4B4)
T37 construct: purchased Reaction Biology Corp
Procedure: as §1

RSK2 = biological target: T38, RSK2 (Homo sapiens, UniProt P51812)
T38 construct: purchased Reaction Biology Corp
Procedure: as §1

SBK1 = biological target: T39, SBK1 (Homo sapiens, UniProt Q52WX2)
T39 construct: purchased Reaction Biology Corp
Procedure: as §1

SRMS = biological target: T40, SRMS (Homo sapiens, UniProt Q9H3Y6)
T40 construct: purchased Reaction Biology Corp
Procedure: as §1

TESK1 = biological target: T41, TESK1 (Homo sapiens, UniProt Q15569)
T41 construct: purchased Reaction Biology Corp
Procedure: as §1

VRK1 = biological target: T42, VRK1 (Homo sapiens, UniProt Q99986)
T42 construct: purchased Reaction Biology Corp
Procedure: as §1

YANK2 = biological target: T43, YANK2 (Homo sapiens, UniProt Q9NY57)
T43 construct: purchased Reaction Biology Corp
Procedure: as §1

T1 sequence (Q9Y243 whole entry): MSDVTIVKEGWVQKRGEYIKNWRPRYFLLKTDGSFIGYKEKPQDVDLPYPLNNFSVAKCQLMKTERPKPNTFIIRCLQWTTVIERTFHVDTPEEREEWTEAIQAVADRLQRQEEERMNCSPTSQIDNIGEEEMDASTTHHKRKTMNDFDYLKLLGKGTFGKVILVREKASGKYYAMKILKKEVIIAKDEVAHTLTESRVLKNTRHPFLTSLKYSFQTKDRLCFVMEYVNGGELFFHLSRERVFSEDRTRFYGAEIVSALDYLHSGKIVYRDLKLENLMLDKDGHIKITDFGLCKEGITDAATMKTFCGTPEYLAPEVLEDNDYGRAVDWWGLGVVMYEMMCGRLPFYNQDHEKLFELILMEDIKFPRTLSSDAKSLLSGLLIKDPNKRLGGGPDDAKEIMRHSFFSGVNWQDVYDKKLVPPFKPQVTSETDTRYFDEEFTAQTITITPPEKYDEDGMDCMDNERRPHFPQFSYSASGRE

CCn1cnc2c(NCc3ccc(-c4ccccn4)nc3)nc(-c3ccc(N)nc3)nc21 [Compound 30d, N-([2,2′-Bipyridin]-5-ylmethyl)-2-(6-aminopyridin-3-yl)-9-ethyl-9H-purin-6-amine]
remaining activity at 10 µM (AKT3): 96.1%
remaining activity at 10 µM (AXL): 44.2%
remaining activity at 10 µM (AurkC): 25.5%
remaining activity at 10 µM (BMPR2): 52.4%
remaining activity at 10 µM (BRAF): 60.8%
remaining activity at 10 µM (CAMK1b): 66.8%
remaining activity at 10 µM (CAMK1d): 58%
remaining activity at 10 µM (CAMK2d): 61.7%
inhibition at 10 µM (CDK1/cyclinB): > 95%
remaining activity at 10 µM (CDK1/cyclinB): 2.1%
remaining activity at 10 µM (CDK4/cyclinD1): 33.5%
remaining activity at 10 µM (CDK4/cyclinD3): 28.6%
inhibition at 10 µM (CDK7/cyclinH): > 95%
remaining activity at 10 µM (CDK7/cyclinH): 3.8%
remaining activity at 10 µM (CSNK1G1): 29.8%
remaining activity at 10 µM (DMPK2): 92.4%
inhibition at 10 µM (DYRK1B): > 95%
remaining activity at 10 µM (DYRK1B): 3.2%
inhibition at 10 µM (EPHB2): > 95%
remaining activity at 10 µM (EPHB2): 2.5%
remaining activity at 10 µM (ERK1): 9.4%
remaining activity at 10 µM (FGFR2): 33.7%
remaining activity at 10 µM (HIPK4): 43.9%
remaining activity at 10 µM (HPK1): 30.2%
remaining activity at 10 µM (ICK): 39.6%
remaining activity at 10 µM (IRAK2): 97.5%
remaining activity at 10 µM (IRAK4): 94.8%
remaining activity at 10 µM (MAP3K3): 94%
remaining activity at 10 µM (MAPKAPK2): 102%
remaining activity at 10 µM (MEK2): 176%
remaining activity at 10 µM (MEK5): 84.1%
remaining activity at 10 µM (MET): 96.4%
remaining activity at 10 µM (MKK6): 95.4%
remaining activity at 10 µM (MNK2): 91.2%
remaining activity at 10 µM (MUSK): 10.2%
remaining activity at 10 µM (P38-gamma): 118%
remaining activity at 10 µM (PHKg1): 16.5%
remaining activity at 10 µM (PKAC-gamma): 88.4%
remaining activity at 10 µM (PKN1): 85.4%
remaining activity at 10 µM (PLK1): 68.3%
remaining activity at 10 µM (PLK3): 94.4%
remaining activity at 10 µM (RSK2): 69.4%
remaining activity at 10 µM (SBK1): 94.5%
remaining activity at 10 µM (SRMS): 96.8%
remaining activity at 10 µM (TESK1): 93.1%
remaining activity at 10 µM (VRK1): 87.3%
remaining activity at 10 µM (YANK2): 57.6%
